From the supplement of paper PMC10307832

Experiments:
Experiment in all cases: relative viability (nuclei count vs DMSO), 5 days (fraction); higher = more cells survive
AZD8055 + Olaparib = compound: COc1ccc(-c2ccc3c(N4CCOC[C@@H]4C)nc(N4CCOC[C@@H]4C)nc3n2)cc1CO [AZD8055] + O=C(c1cc(Cc2n[nH]c(=O)c3ccccc23)ccc1F)N1CCN(C(=O)C2CC2)CC1 [Olaparib] (partner 8 µM)
Procedure, shortened: (§1)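 One day after seeding in 1536-well plates, lung cancer cell lines were dosed by pin tool. Dosing was either single-drug or a fixed anchor-drug dose plus five library-drug doses (not always all listed) in √10 steps. After 5 days, nuclei were stained in one fix-and-stain step and counted on 4× images, and relative viability is the nuclei count of treated wells over that of vehicle wells, given as the median of duplicate plates.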

AZD8055 + Decitabine = compound: COc1ccc(-c2ccc3c(N4CCOC[C@@H]4C)nc(N4CCOC[C@@H]4C)nc3n2)cc1CO [AZD8055] + Nc1ncn([C@H]2C[C@H](O)[C@@H](CO)O2)c(=O)n1 [Decitabine] (partner 2 µM)
Procedure, shortened: as §1

AZD8055 + AZD7762 = compound: COc1ccc(-c2ccc3c(N4CCOC[C@@H]4C)nc(N4CCOC[C@@H]4C)nc3n2)cc1CO [AZD8055] + NC(=O)Nc1cc(-c2cccc(F)c2)sc1C(=O)N[C@H]1CCCNC1 [AZD7762] (partner 0.2 µM)
Procedure, shortened: as §1

AZD8055 + Lapatinib = compound: COc1ccc(-c2ccc3c(N4CCOC[C@@H]4C)nc(N4CCOC[C@@H]4C)nc3n2)cc1CO [AZD8055] + CS(=O)(=O)CCNCc1ccc(-c2ccc3ncnc(Nc4ccc(OCc5cccc(F)c5)c(Cl)c4)c3c2)o1 [Lapatinib] (partner 2 µM)
Procedure, shortened: as §1

Cell Line	relative viability (AZD8055 + Olaparib; first compound 0.01 µM)	relative viability (AZD8055 + Olaparib; first compound 0.03162 µM)	relative viability (AZD8055 + Olaparib; first compound 0.1 µM)	relative viability (AZD8055 + Olaparib; first compound 0.3162 µM)	relative viability (AZD8055 + Olaparib; first compound 1 µM)	relative viability (AZD8055 + Decitabine; first compound 0.01 µM)	relative viability (AZD8055 + Decitabine; first compound 0.03162 µM)	relative viability (AZD8055 + Decitabine; first compound 0.1 µM)	relative viability (AZD8055 + Decitabine; first compound 0.3162 µM)	relative viability (AZD8055 + Decitabine; first compound 1 µM)	relative viability (AZD8055 + AZD7762; first compound 0.01 µM)	relative viability (AZD8055 + AZD7762; first compound 0.03162 µM)	relative viability (AZD8055 + AZD7762; first compound 0.1 µM)	relative viability (AZD8055 + AZD7762; first compound 0.3162 µM)	relative viability (AZD8055 + AZD7762; first compound 1 µM)	relative viability (AZD8055 + Lapatinib; first compound 0.01 µM)	relative viability (AZD8055 + Lapatinib; first compound 0.03162 µM)	relative viability (AZD8055 + Lapatinib; first compound 0.1 µM)	relative viability (AZD8055 + Lapatinib; first compound 0.3162 µM)	relative viability (AZD8055 + Lapatinib; first compound 1 µM)
LC-2-ad	0.748	0.778	0.759	0.835	0.704	0.911	0.729	0.788	0.835	0.67	0.909	0.873	0.816	0.791	0.645	1.1	0.987	0.924	0.683	0.456
LCLC-97TM1	0.413	0.308	0.216	0.105	0.0929	0.239	0.184	0.17	0.133	0.147	0.23	0.176	0.173	0.145	0.11	0.758	0.815	0.639	0.157	0.181
LK-2	0.769	0.436	0.379	0.144	0.171	0.273	0.19	0.156	0.146	0.144	0.285	0.204	0.205	0.104	0.135	0.801	0.55	0.47	0.198	0.17
LOU-NH91	1.03	0.913	0.816	0.633	0.607	0.85	0.809	0.72	0.577	0.615	0.684	0.702	0.621	0.557	0.555	0.68	0.679	0.56	0.484	0.548
LU99A	0.293	0.226	0.161	0.183	0.168	1	0.666	0.417	0.222	0.188	0.366	0.242	0.185	0.152	0.133	0.824	0.458	0.329	0.218	0.228
LXF-289	1.07	1.01	0.928	0.641	0.57	0.397	0.317	0.369	0.343	0.356	1.28	1.2	1.19	0.978	0.744	0.939	0.903	0.846	0.804	0.708
NCI-H23	0.248	0.213	0.279	0.166	0.184	0.252	0.287	0.262	0.225	0.262	0.202	0.245	0.233	0.161	0.14	1.15	0.804	0.792	0.369	0.35
NCI-H322M	0.806	0.847	0.734	0.731	0.474	0.71	0.601	0.617	0.555	0.588	0.51	0.454	0.434	0.426	0.432	0.536	0.551	0.51	0.5	0.466
NCI-H358	0.563	0.594	0.543	0.202	0.12	0.22	0.24	0.177	0.134	0.113	0.701	0.557	0.523	0.308	0.203	0.444	0.41	0.394	0.254	0.246
NCI-H460	0.444	0.409	0.371	0.254	0.216	0.573	0.352	0.353	0.246	0.13	0.831	0.51	0.607	0.137	0.092	1.72	0.629	0.43	0.137	0.0984
NCI-H596	0.752	0.615	0.459	0.452	0.514	1.06	0.841	0.698	0.571	0.528	1.04	0.776	0.632	0.567	0.489	1	0.682	0.661	0.535	0.463
NCI-H647	0.7	0.416	0.301	0.227	0.169	0.35	0.271	0.198	0.195	0.126	0.397	0.338	0.391	0.157	0.1	1.15	0.565	0.478	0.192	0.207
NCI-H650	0.484	0.38	0.357	0.217	0.175	0.35	0.278	0.333	0.29	0.275	0.84	0.875	1.02	0.667	0.323	0.838	0.73	0.58	0.341	0.319
NCI-H727	0.818	0.812	0.744	0.603	0.52	0.875	0.85	0.736	0.498	0.616	0.727	0.574	0.528	0.434	0.338	0.807	0.818	0.685	0.378	0.308
NCI-H838	0.687	0.597	0.351	0.259	0.29	0.513	0.343	0.305	0.278	0.296	1.06	0.932	0.85	0.711	0.659	1.04	0.656	0.352	0.237	0.336
NCI-H1355	0.694	0.622	0.553	0.269	0.266	0.395	0.335	0.321	0.248	0.231	0.856	0.663	0.594	0.288	0.248	0.866	0.78	0.703	0.257	0.274

Cell Line	relative viability (AZD8055 + Olaparib; first compound 0.01 µM)	relative viability (AZD8055 + Olaparib; first compound 0.03162 µM)	relative viability (AZD8055 + Olaparib; first compound 0.1 µM)	relative viability (AZD8055 + Olaparib; first compound 0.3162 µM)	relative viability (AZD8055 + Olaparib; first compound 1 µM)	relative viability (AZD8055 + Decitabine; first compound 0.01 µM)	relative viability (AZD8055 + Decitabine; first compound 0.03162 µM)	relative viability (AZD8055 + Decitabine; first compound 0.1 µM)	relative viability (AZD8055 + Decitabine; first compound 0.3162 µM)	relative viability (AZD8055 + Decitabine; first compound 1 µM)	relative viability (AZD8055 + AZD7762; first compound 0.01 µM)	relative viability (AZD8055 + AZD7762; first compound 0.03162 µM)	relative viability (AZD8055 + AZD7762; first compound 0.1 µM)	relative viability (AZD8055 + AZD7762; first compound 0.3162 µM)	relative viability (AZD8055 + AZD7762; first compound 1 µM)	relative viability (AZD8055 + Lapatinib; first compound 0.01 µM)	relative viability (AZD8055 + Lapatinib; first compound 0.03162 µM)	relative viability (AZD8055 + Lapatinib; first compound 0.1 µM)	relative viability (AZD8055 + Lapatinib; first compound 0.3162 µM)	relative viability (AZD8055 + Lapatinib; first compound 1 µM)
NCI-H1395	0.479	0.412	0.407	0.358	0.432	0.767	0.585	0.615	0.419	0.506	0.384	0.405	0.443	0.34	0.419	0.939	0.776	0.771	0.616	0.462
NCI-H1437	0.696	0.658	0.601	0.457	0.311	0.612	0.553	0.509	0.363	0.302	1.16	1.1	1.12	0.568	0.494	1.03	0.76	0.549	0.221	0.183
NCI-H1651	0.193	0.191	0.193	0.222	0.25	0.69	0.319	0.481	0.416	0.347	0.499	0.431	0.424	0.237	0.161	0.844	0.569	0.585	0.403	0.324
NCI-H1666	0.875	0.81	0.771	0.714	0.674	0.744	0.685	0.627	0.702	0.685	0.945	1.09	0.908	0.76	0.698	0.587	0.488	0.488	0.355	0.362
NCI-H1734	0.675	0.555	0.458	0.298	0.199	0.551	0.344	0.433	0.299	0.234	0.549	0.361	0.273	0.181	0.15	1.17	0.789	0.57	0.308	0.242
NCI-H1755	0.767	0.765	0.677	0.446	0.378	0.714	0.636	0.691	0.506	0.461	0.625	0.401	0.416	0.364	0.33	1.07	0.815	0.935	0.565	0.457
NCI-H1792	0.503	0.379	0.0968	0.0717	0.108	0.585	0.38	0.338	0.093	0.124	0.589	0.291	0.21	0.0685	0.0707	1.02	0.838	0.808	0.15	0.131
NCI-H1793	0.528	0.329	0.221	0.203	0.213	0.435	0.219	0.207	0.181	0.221	0.379	0.264	0.197	0.145	0.127	0.422	0.346	0.305	0.308	0.276
NCI-H1915	0.257	0.262	0.289	0.238	0.204	0.272	0.251	0.258	0.254	0.244	0.777	0.48	0.686	0.425	0.454	1.1	0.876	1.01	0.655	0.522
NCI-H1944	0.41	0.428	0.393	0.254	0.259	0.429	0.349	0.402	0.319	0.226	0.455	0.453	0.393	0.268	0.202	0.766	0.655	0.615	0.367	0.336
NCI-H1975	0.976	0.677	0.464	0.221	0.189	0.458	0.371	0.312	0.238	0.237	0.732	0.636	0.466	0.328	0.348	1.04	0.601	0.468	0.273	0.251
NCI-H1993	1.02	0.793	0.602	0.409	0.434	0.49	0.488	0.49	0.444	0.386	0.646	0.377	0.402	0.366	0.516	0.685	0.766	0.75	0.668	0.672
NCI-H2085	0.858	0.822	0.553	0.387	0.354	0.576	0.512	0.379	0.456	0.426	0.994	0.848	0.706	0.409	0.362	0.899	0.514	0.384	0.334	0.341
NCI-H2087	0.625	0.519	0.451	0.263	0.217	0.28	0.182	0.236	0.153	0.113	1.37	1.36	1.33	0.654	0.478	1.01	0.932	0.826	0.581	0.435
NCI-H2126	0.916	0.833	0.709	0.493	0.363	0.623	0.499	0.485	0.434	0.331	1.03	1.07	0.902	0.587	0.508	0.653	0.679	0.615	0.453	0.425
NCI-H2170	0.67	0.572	0.37	0.198	0.183	0.537	0.363	0.456	0.252	0.218	1.04	0.733	0.502	0.293	0.226	0.242	0.231	0.229	0.231	0.228
